The results in this text go back to patent publication US20030092753A1, “Methods for the treatment and prevention of neurodegenerative conditions” (Wyeth, priority 1999, published 2003).

In this assay the test system is rat hippocampal slices. The experiment in a line: Reduction of azide-induced ischemic efflux of glutamate in rat hippocampal slices. It counts as cell-based. Conditions: AUC vs control, statistically significant. As to the method: Adatanserin was evaluated for its ability to reduce the azide-induced ischemic efflux of glutamate in rat hippocampal slices. Three Krebs buffers were used in the experiments. Normal Krebs buffer consisted of a solution containing the following: (122 mM NaCl, 3 mM KCl, 24 mM NaHCO3, 10 mM glucose, 0.315 mM K2HPO4, 1.2 mM MgSO4, 4 mM CaCl2). Aglycemic Krebs buffer was similar to the normal buffer with the exception that glucose was not added. Ischemic Krebs buffer was the aglycemic solution which contained varying concentrations of sodium azide (0-30 mM).
Rat hippocampi were dissected on a cold platform and suspended in ice cold oxygenated normal Krebs buffer. The tissue was cross-chopped at 350 microns on a McIlwain tissue chopper, then resuspended and washed three times with ice cold normal Krebs buffer. […] Amino acid concentrations were analyzed with reverse phase HPLC on a catacholarine column (Keystone Scinetific, 150×3 mm) employing an 0.05 M acetate/methanol gradient. […] Amino acids were visualized by derivatization with naphthalene-2,3-dicarboxaldehyde and fluorimetric detection (Dawson, L. A. et al., Improved Temporal Resolution of Microdialysis Measurement of Glutamate and Aspartate Using Capillary Electrophoresis with Laser Induced Fluorescence Detection. J. Chromatogr. B 1997, 694, 1204-1212). […]

As for `O=C(NCCN1CCN(c2ncccn2)CC1)C12CC3CC(CC(C3)C1)C2` [adatanserin, N-[2-[4-(2-pyrimidinyl)-1-piperazinyl]ethyl]tricyclo[3.3.1.13.7]decane-1-carboxamide], the “reduction of glutamate release (azide-induced ischemic efflux)” value came to 72% (adatanserin 100 nM) and 71% (adatanserin 1000 nM (1 μM)).
